In patent US10918610B2, “Compounds and methods of promoting myelination” (Case Western Reserve University, priority 2017, dated 2021):

Tests used:
EpiSC-derived OPCs = test: Oligodendrocyte formation and myelin sheaths on electrospun microfibers; type: cell-based, mouse; settings: 100 nM, versus untreated OPCs; microscopic images
Protocol: A 12-well plate containing Mimetex aligned scaffold (microfiber plate, AMSBIO, AMS.TECL-006-1X, Electrospun poly-L-lactide Scaffold, […] fibre diameter cell crown inserts) was prepared as previously described. Briefly, inserts were sterilized with 70% ethanol and washed with PBS before being coated with polyornithine and laminin. After laminin coating, 100,000 cells/mL of EpiSC-derived OPCs were plated in differentiation medium. After 24 h the media was replaced with fresh media containing small molecule treatments. […] Plates were fixed with 4% PFA, permeabilized with 0.1% Triton X-100, and blocked with 10% donkey serum (v/v) in PBS for 60 min. Plates were stained for MBP (Abcam, ab7349; 1:100) and DAPI staining (Sigma; 5 μg/ml). After staining, the inserts were moved into new 12-well plate and covered with 2 mL of PBS before imaging in Operetta high content Imaging and analysis system. Plates were imaged on the Operetta High Content Imaging and Analysis system (PerkinElmer) and a set of 8 fields captured from each well resulting in an average of 45,000 cells being scored per well. Analysis (PerkinElmer Harmony and Columbus software) identified intact nuclei stained by DAPI and calculated the MBP signal intensity per cell per well. Microfiber insert tracking images were taken using a Leica DMi8 with a 20× Dry/NA 0.40 objective. […]

corpus callosum = test: LPC-induced demyelination in corpus callosum, DTI-MRI fractional anisotropy; type: in vivo, Sprague-Dawley male rats; settings: rats, 20 mg/kg intraperitoneal QD
Protocol: In total, 30 Sprague-Dawley male rats (˜200-300 g) were infused with lysophosphatidylcholine (LPC) on the ipsilateral side and with vehicle for LPC on the contralateral side of the corpus callosum in order to induce demyelination. […] Cis-N-cyclohexyl-N-ethyl-3-(3-chloro-4-cyclohexylphenyl)prop-2-enylamine was diluted to a final concentration of 2.5% ETOH and 2.5% Kolliphor in Saline. DTI-MRI was used as a primary method to quantify the demyelinated lesion and to assess the organization of white matter in corpus callosum over time, on days 3, 10 and 15. Day 3 served as a baseline followed by repeated analyses during the therapeutic period. On day 15, the animals were euthanized and tissue samples collected. The amount of demyelination and the extent of neuronal loss were analyzed by histological analysis of MBP and Nissl substance, respectively, in corpus callosum.
Demyelination in corpus callosum was induced by stereotactic infusion of lysophospatidylcholine (LPC, Santa Cruz, Calif., USA) directly to the target tissue. First, rats were anesthetized with 5% isoflurane (in 70% N20 and 30% 02; flow 300 ml/min) and placed in a stereotactic frame. […]
Analgesics were administered during and after the surgery. […] Rats were carefully monitored by laboratory personnel twice a day and any rats prematurely fulfilling the criteria for humane end-points were euthanized during the study. […]

CCN(C/C=C\c1ccc(C2CCCCC2)c(Cl)c1)C1CCCCC1 [Cis-N-cyclohexyl-N-ethyl-3-(3-chloro-4-cyclohexylphenyl)prop-2-enylamine]
amount of myelin sheaths formed on electrospun poly-L-lactide scaffold microfibers (EpiSC-derived OPCs): significant increase in the amount of myelin sheaths
ipsilateral FA measurements, difference between the groups at Day 15 (corpus callosum; Day 15): trend in improvement
fractional anisotropy (FA) value of the ipsilateral side (FIG. 8B) (corpus callosum; days 3-15 after LPC infusion, versus vehicle): noticeable recovery of the FA value
